Like-named read-outs stand apart in the source and are kept apart here.
Assays:
VEGFR-2 = VEGFR-2 (Homo sapiens, UniProt P35968); assay: VEGF stimulated VEGFR-2 autophosphorylation in whole cells; type: cell-based
Text: (§1) The compound of formula 1 is an anti-angiogenic small molecule inhibitor of the tyrosine kinase activity of the vascular endothelial growth factor receptor 2 (VEGFR-2). […] Angiogenesis is necessary for the growth and metastasis of all solid tumors, in that newly formed blood vessels provide nutrients for growing tumors. VEGF is highly overexpressed in a number of tumors. The therapeutic objective of the compound of formula 1 is to inhibit angiogenesis and thereby prevent tumor growth by inhibition of VEGFR-2 tyrosine kinase (TK) activity.

endothelial cell = endothelial cell proliferation; type: cell-based
Text: as §1

[1] = hygroscopicity of the salt; type: physicochemical; conditions: at 90% relative humidity at ambient temperature
Method: The mixture was then shaken gently with heating at 50° C. for 3 hours and at ambient temperature for 3 days. The solid was filtered, dried under high vacuum to afford a white solid (468 mg, 0.823 mmol, 82%). Melting point 230° C. (DSC). Hygroscopicity: 1% (by weight)) at 90% relative humidity at ambient temperature (RH). Characteristic X-ray powder diffraction peaks (2-theta, [% relative intensity]): 8.623 [90.7], 12.121 [38.9], 17.298 [95.2], 23.397 [44.7], 23.944 [51.7], 24.119 [62.7], 24.873 [55.7], 25.948 [100], and 28.821 [39.6].

[2] = phase 1/2 study with paclitaxel and carboplatin: safety; type: in vivo, human patients
Method: (§2) Anti-tumor activity was also assessed.

stage IIIb or IV NSCLC = assay: phase 1/2 study with paclitaxel and carboplatin: anti-tumor activity; type: in vivo, human patients; conditions: 24 patients evaluable for response, with P/C
Method: as §2

[3] = parameters: species or system human patients; conditions: in vivo
Method: (§3) In a phase 1 study, fifty five (55) patients were treated with the compound of formula 2 as a single agent over a dose range from 35 mg PO (oral dose) for 14 days to 400 mg PO per day continuously. Overall, 25 male and 30 female patients were treated. Patient malignancies include: NSCL (11 patients), renal and urothelial (7 patients), breast (6 patients), colorectal (7 patients), esophageal (3 patients), pancreatic (2 patients), prostate (3 patients), melanoma (2 patients), head and neck (3 patients), soft tissue sarcoma (3 patients), other (8 patients). Forty-two patients had prior chemotherapy. Three patients starting at 300 mg/d had dose reductions to 225 mg/d; 2 reductions were for grade 3 hypertension (HTN), graded by the Common Toxicity Criteria (CTC version 2), occurring between days 15 and 18; 1 additional reduction was as per the patient's request after an episode of hemoptysis in this patient with renal cell carcinoma and lung metastasis. CTC Grade 3 hypertension was initially considered dose limiting at doses of the compound of formula 2 of 300 mg/d, occurring in 2 of 6 patients. Both patients returned to CTC grade 1 or better within 7 days of holding study drug.

[4] = tested on: patient malignancies (NSCL, renal and urothelial, breast, colorectal, other); assay: phase 1 single agent study: tumor response; type: in vivo, human patients; conditions: of 29 patients with tumor response data
Method: as §3
Of the 29 patients for whom tumor response data is available, 9 patients have stable disease beyond 2 cycles (more than 8 weeks) and 2 patients had stable disease beyond 4 cycles (more than 16 weeks).

[5] = phase 1 single agent study: pharmacokinetic analysis; type: in vivo, human patients; conditions: for AUC: 250 mg
Method: A preliminary pharmacokinetic analysis has been performed on the compound of formula 2 concentration data from the patients in the Phase 1 study. In the higher dose cohorts in that study, blood specimens for pharmacokinetics were collected on Day 1 and 15 of Cycle 1 at the following times: just prior to dosing and at 0.5, 1, 2, 4, 6, 8, 12, 16, and 24 hours post-dose. Blood specimens for pharmacokinetics were also collected prior to and 2 hours after dosing on Days 3, 5, and 8 of Cycle 1. […] The 1% value of the cumulative distribution of the data is 2000 ng·hr/mL and the 99% value is 25000 ng·hr/mL. […] For instance, the 99% value for a dose of 300 mg is predicted to be 25000 ng·hr/mL times 1.2 (300 divided by 250) which equals 30000 ng·hr/mL. The 1% value for a dose of 125 mg is predicted to be 2000 ng·hr/mL times 0.5 (125 divided by 250) which equals 1000 ng·hr/mL. Similar calculations provide predictions of the 1% (lower) and 99% (upper) values of the cumulative distribution of 24-hour AUC values for doses of 150 mg, 180 mg, 260 mg, and 280 mg.

clinical = conditions: human, plasma, oral
Text: (§4) With daily (i.e., QD) dosing, the 24-hour AUC value (i.e., the dosing interval AUC value) is a standard measure of systemic exposure to the compound.
(§5) A phase 1/2 study examined the safety and PK of escalating oral QD doses of the hydrochloride salt of the compound of formula 1, viz., the hydrochloride salt of 3-(4-Bromo-2,6-difluoro-benzyloxy)-5-[3-(4-pyrrolidin-1-yl-butyl)-ureido]-isothiazole-4-carboxylic acid amide (i.e., compound of formula 2 shown above), given in combination with paclitaxel (P) (225 mg m^2) and carboplatin (C) (AUC=6) administered in 21 day cycles to chemotherapy naïve patients with PS 0-1 stage IIIb or IV NSCLC with or without stable brain mets and PS 0-1.

[6] = phase 1/2 study with paclitaxel and carboplatin: PK; conditions: doses ≧150 mg QD
Text: as §4, §5

VEGFR-2, sequence (P35968 20-1356): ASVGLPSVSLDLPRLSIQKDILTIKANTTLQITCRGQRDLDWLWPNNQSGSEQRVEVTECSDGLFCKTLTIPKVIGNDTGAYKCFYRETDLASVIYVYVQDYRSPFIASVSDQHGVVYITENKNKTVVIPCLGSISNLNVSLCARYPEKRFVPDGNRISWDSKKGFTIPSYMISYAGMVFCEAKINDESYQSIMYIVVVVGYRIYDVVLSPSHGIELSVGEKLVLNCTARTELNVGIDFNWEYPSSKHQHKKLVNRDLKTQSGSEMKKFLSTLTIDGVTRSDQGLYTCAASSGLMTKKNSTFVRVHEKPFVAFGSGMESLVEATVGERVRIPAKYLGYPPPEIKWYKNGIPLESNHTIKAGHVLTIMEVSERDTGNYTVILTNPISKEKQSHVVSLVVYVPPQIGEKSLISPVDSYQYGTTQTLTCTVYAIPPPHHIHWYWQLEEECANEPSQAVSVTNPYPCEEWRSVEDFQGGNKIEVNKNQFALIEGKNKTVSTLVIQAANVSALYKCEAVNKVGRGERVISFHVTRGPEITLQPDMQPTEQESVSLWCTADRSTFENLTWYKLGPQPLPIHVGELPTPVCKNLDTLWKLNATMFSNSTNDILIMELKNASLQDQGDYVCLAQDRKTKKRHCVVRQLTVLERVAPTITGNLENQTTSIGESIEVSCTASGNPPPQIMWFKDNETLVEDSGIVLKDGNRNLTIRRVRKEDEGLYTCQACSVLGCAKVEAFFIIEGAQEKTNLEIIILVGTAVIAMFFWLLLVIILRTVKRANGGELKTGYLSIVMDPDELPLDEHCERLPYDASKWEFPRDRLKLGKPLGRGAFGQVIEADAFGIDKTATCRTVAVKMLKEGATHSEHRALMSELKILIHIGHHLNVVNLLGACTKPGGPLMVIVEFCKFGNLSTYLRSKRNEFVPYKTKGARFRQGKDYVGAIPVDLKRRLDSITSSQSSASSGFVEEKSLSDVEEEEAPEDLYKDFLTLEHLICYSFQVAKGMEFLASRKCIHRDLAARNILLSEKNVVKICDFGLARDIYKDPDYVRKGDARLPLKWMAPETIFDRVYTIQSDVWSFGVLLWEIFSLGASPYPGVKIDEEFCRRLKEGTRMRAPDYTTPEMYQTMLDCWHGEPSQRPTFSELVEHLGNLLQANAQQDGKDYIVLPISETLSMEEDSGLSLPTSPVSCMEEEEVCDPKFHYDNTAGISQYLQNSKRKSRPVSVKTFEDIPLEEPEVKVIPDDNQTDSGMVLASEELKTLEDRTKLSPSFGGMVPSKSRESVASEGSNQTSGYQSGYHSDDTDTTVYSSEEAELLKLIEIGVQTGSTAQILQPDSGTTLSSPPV

NC(=O)c1c(OCc2c(F)cc(Br)cc2F)nsc1NC(=O)NCCCCN1CCCC1 [compound of formula 1]
inhibition of VEGF stimulated VEGFR-2 autophosphorylation (VEGFR-2): inhibits VEGF stimulated VEGFR-2 autophosphorylation in whole cells | inhibition of endothelial cell proliferation (endothelial cell): inhibits endothelial cell proliferation

Cl.NC(=O)c1c(OCc2c(F)cc(Br)cc2F)nsc1NC(=O)NCCCCN1CCCC1 [compound of formula 2]
Hygroscopicity [1]: 1 % (by weight) | most common treatment emergent adverse events ([2]; in vivo): diarrhea, fatigue, nausea, neuropathy, emesis, alopecia, dyspnea and arthralgia/myalgia | safety of combination with standard doses of P/C ([2]; in vivo, po): can be safely combined with standard doses of P/C | maximum tolerable dose ([2]; oral QD with paclitaxel 225 mg/m2 and carboplatin AUC=6, 21 day cycles, NSCLC patients): 200 mg/day | objective response rate (stage IIIb or IV NSCLC): 20% | progressive disease rate (stage IIIb or IV NSCLC): 33% | CTC Grade 3 hypertension (initially considered dose limiting) ([3]; both, human): 2 of 6 | dermatologic events reported by more than one patient ([3]; both, human): grade 2 venostasis rash, which occurred in cycle 2, and grade 1 pallor and shingles | events in patient dose reduced from 400 mg to 350 mg ([3]; both, human): grade 3 fatigue | patients with dose limiting toxicities ([3]; both, human): None of the 4 | patients with dose limiting toxicity ([3]; both, human): 1 of 10 | recommended Phase 2 single agent dose ([3]; both, human): 250 mg | reports of grade 3 diarrhea ([3]; both, human): 3 reports | maximum administered dose ([3]; both, human, po): 400 mg | events in patient further dose reduced to 300 mg [3]: severe renal hemorrhage, alveolar hemorrhage and gastrointestinal hemorrhage | other gastrointestinal adverse events occurring in 2 or more patients [3]: nausea, taste disturbance, anorexia and mouth dryness | patients with stable disease beyond 2 cycles (more than 8 weeks) [4]: 9 patients | patients with stable disease beyond 4 cycles (more than 16 weeks) [4]: 2 patients | drug concentrations versus predicted efficacious concentrations ([5]; 250 mg daily dose): consistently above the lowest predicted human efficacious concentrations | 24-hour AUC, predicted 1% value of the cumulative distribution ([5]; dose of 125 mg, assuming dose proportionality): 1000 ng·h/mL | 24-hour AUC, predicted 99% value of the cumulative distribution ([5]; dose of 300 mg, assuming dose proportionality): 30000 ng·h/mL | AUC ([5]; human, plasma, oral, 250 mg QD, 19 patients, log-normal distribution, read-out: 24-hour AUC, geometric mean): 7260 ng·h/mL | AUC ([5]; human, plasma, oral, 250 mg QD, 19 patients, read-out: 24-hour AUC values, range): 2880 to 18700 ng·h/mL | AUC ([5]; human, plasma, oral, 250 mg QD, 19 patients, read-out: 24-hour AUC, 1% value of the cumulative distribution): 2000 ng·h/mL | AUC ([5]; human, plasma, oral, 250 mg QD, 19 patients, read-out: 24-hour AUC, 99% value of the cumulative distribution): 25000 ng·h/mL | Cmax ([5]; human, plasma, oral, 250 mg QD, 19 patients, standard deviation 240 ng/mL, read-out: mean Cmax (maximum observed plasma concentration)): 457 ng/mL | half-life (clinical): ~32 h | plasma concentrations achieved [6]: within the range associated with anti-angiogenesis in preclinical models

From patent publication US20050234115A1, “Dosage forms and methods of treatment using VEGFR inhibitors” (Pfizer Inc., priority 2004, published 2005)
